IC50 data for 8 compounds are collected here from patent publication US5719145A, “Amidine derivatives and platelet aggregation inhibitor containing the same” (Mitsui Toatsu Chemicals, Inc., priority 1996, dated 1998).

Molecules are shown by their SMILES. Counter-ions that a name gives are not always drawn.

Assay [1] addresses T1, human fibrinogen receptor GP IIb/IIIa (Homo sapiens, UniProt P05106+P08514).
T1 construct: Concentrated and lyophilized human platelet (20 vial) (Organon Teknika Co.) was lysed; tissue Organon Teknika Co; host or cells: human platelets (lyophilized), lysed in Triton X-100
Put plainly: Binding inhibition of biotinylated fibrinogen to GP IIb/IIIa. Conditions: purified human GP IIb/IIIa, read-out: Inhibition of GPIIb/IIIa . Fibrinogen Binding, IC50. How it is done: Experiment for binding inhibition between GP IIb/IIIa and fibrinogen
1. Purification of human fibrinogen receptor GP IIb/IIIa
Concentrated and lyophilized human platelet (20 vial) (Organon Teknika Co.) was lysed in an antienzymic solution (80 ml) (1% Triton X-100, 10 mM Tris-HCl, 150 mM NaCl, 1 mM CaCl2, 10 μM leupeptin, 1 mM phenylmethane sulfonyl fluoride, pH 7.4), allowed to incubate for an hour at 4° C., and centrifuged at 30,000×g for 15 minutes to recover the supernatant solution containing 150 mg of protein. The GP IIb/IIIa was purified according to the method of Phillips et al. [Methods in Enzymology Vol. 215, (J. J. Hawigar, Eds.), 244-263, Acedemic Press Inc., San Diego].
2. Preparation of biotinylated fibrinogen
Human fibrinogen Grade L (KABI Co.) was purified by using Shepharose CL-6B and Lysine-Sepharose. Thus purified human fibrinogen (2.3 mg/ml) was dialyzed for 3 hours with 0.1M aqueous sodium bicarbonate solution at room temperature and successively diluted to 1 mg/ml. To the solution (4.5 ml) obtained, NHC-LC-Biotin (2 mg) (Pierce Co.) was added and reacted for 1 hour at room temperature to biotinylate fibrinogen. The reaction mixture was dialyzed at 4° C. for 24 hours with TBS (20 mM Tris-HCl, 150 mM NaCl, 1 mM CaCl2, 1 mM MgCl2, pH 7.4) to obtain biotinylated fibrinogen.
3. Binding inhibition of biotinylated fibrinogen to GP IIb/IIIa
Specimen drugs were dissolved and diluted with TBS containing 1% BSA. To each solution, an equal volume of biotinylated fibrinogen (2 μg/ml) dissolved in TBS containing 1% BSA, was added. The inhibition percentage of specimen drugs were measured by the method of Mori et al. [Jpn. J. Thromb. Hemost., 2, 323-399 (1991) with small modification].
Purified GP IIb/IIIa was diluted to 1.5 μg/ml in TBS containing 0.0005% of Triton X-100. The GP IIb/IIIa solution was added to a 96 well microplate (E.I.A/R.I.A. Plate, Costar Co.) in a volume of 100 μl for each well, and incubated at 4° C. for 24 hours to immobilize GP IIb/IIIa. The microplate was washed twice with a washing solution (TBS containing 0.01% of Tween 20). Thereafter TBS containing 3.5% of BSA was added to each well in a volume of 200 μl and blocking was carried out for about an hour at room temperature. The microplate was further washed twice with the washing solution, and successively a mixture of the specimen drug and the biotinylated fibrinogen was added in a volume of 100 μl/well and incubated for 24 hours at room temperature. The microplate was thereafter washed five times, and peroxidase-labeled streptoavidin (a kit of Amersham Co.) which was previously diluted 3000 times with TBS was added in a volume of 100 μl/well and incubated for about 30 minutes at room temperature. After washing the microplate 5 times, a 0.05M phosphate-citrate buffer solution (pH5) containing o-phenylenediamine(0.4 mg/ml) (manufactured by Sigma Co.) and H2 O2 (0.012%) was added in a volume of 200 μl/well to develop color for 20-40 minutes. The reaction was stopped by addition of 0.3M sulfuric acid in a volume of 50 μl/well and absorbance at 490 nm was measured with Immunoreader NJ-200 (manufactured by Inter Med Co.). […]

Assay [2] relates to human platelets (platelet-rich plasma). Kind of assay: In vitro inhibition of platelet aggregation in human (ADP-induced, PRP). The format is cell-based. Conditions: ADP final concentration 5 μM, read-out: Platelet aggregation inhibitory activity in human, IC50. How it is done: 2. Inhibition of platelet aggregation in human
Blood was collected from healthy human volunteers with an injection syringe and mixed one volume of 3.8% of sodium citrate as an anticoagulant to 9 volumes of the blood. Successively, the obtained blood mixture was subjected to centrifugation at 120×g for 15 minutes at room temperature to obtain platelet-rich plasma (PRP). An aliquot of PRP was further subjected to centrifugation at 1,200×g for 20 minutes to obtain platelet-poor plasma (PPP). Numbers of the platelet were measured with an automatic platelet counter: Sysmex PL-100 (manufactured by Toa Iyodenshi Co.) and PRP was diluted with PPP so as to adjust a platelet concentration to be about 250,000 particles/μl. Platelet aggregation was measured by the following procedure with a 6 channel aggregometer: HEMA TRACER 1 (manufactured by NKK Co.)
After incubation of 240 μl of PRP at 37° C. for 2 minutes, 30 μl of the solvent of specimen as a control or the specimen in various concentrations was added to PRP. Further 2 minutes later, 30 μl of adenosine diphosphate (final concentration: 5 μM) was added to induce platelet aggregation. An inhibition percentage was obtained by comparing the maximum aggregation of the specimen drug group with that of control. […]

The subject of assay [3] is guinea pig platelets (platelet-rich plasma). Put plainly: In vitro inhibition of platelet aggregation in guinea pig (ADP-induced, PRP). It counts as cell-based. Conditions: Cavia porcellus, ADP final concentration 5 μM, read-out: Platelet aggregation inhibitory activity in guinea pig, IC50. How it is done:
In vitro experiment of platelet aggregation inhibition
1. Inhibition of platelet aggregation in Guinea pig
Blood of male guinea pig was collected with an injection syringe which contains 3.8 % sodium citrate as an anticoagulant in a ratio of 1 volume to 9 volumes of the blood. Successively, the collected blood mixture was subjected to centrifugation at 120×g for 15 minutes at room temperature to obtain platelet-rich plasma (PRP). An aliquot of PRP was further subjected to centrifugation at 1,200×g for 15 minutes to obtain platelet-poor plasma (PPP). Numbers of the platelet in PRP were measured with an automatic platelet counter: Sysmex PL-100 (manufactured by Toa Iyodenshi Co.) and PRP was diluted with PPP so as to adjust a platelet concentration to be about 300,000 particles/ μl. Platelet aggregation was measured by the following procedure with a 6 channel aggregometer: HEMA TRACER 1 (manufactured by NKK Co.).
After incubation of 240 μl of PRP at 37° C. for 2 minutes, 30 μl of the solvent of specimen as a control or of the specimen in various concentrations was added to PRP. Further 2 minutes later, 30 μl of adenosine diphosphate (final concentration: 5μM) was added to induce platelet aggregation. An inhibition percentage was obtained by comparing the maximum aggregation of the specimen drug group with that of control. […]

T1 sequence (P08514 32-887 limits assumed): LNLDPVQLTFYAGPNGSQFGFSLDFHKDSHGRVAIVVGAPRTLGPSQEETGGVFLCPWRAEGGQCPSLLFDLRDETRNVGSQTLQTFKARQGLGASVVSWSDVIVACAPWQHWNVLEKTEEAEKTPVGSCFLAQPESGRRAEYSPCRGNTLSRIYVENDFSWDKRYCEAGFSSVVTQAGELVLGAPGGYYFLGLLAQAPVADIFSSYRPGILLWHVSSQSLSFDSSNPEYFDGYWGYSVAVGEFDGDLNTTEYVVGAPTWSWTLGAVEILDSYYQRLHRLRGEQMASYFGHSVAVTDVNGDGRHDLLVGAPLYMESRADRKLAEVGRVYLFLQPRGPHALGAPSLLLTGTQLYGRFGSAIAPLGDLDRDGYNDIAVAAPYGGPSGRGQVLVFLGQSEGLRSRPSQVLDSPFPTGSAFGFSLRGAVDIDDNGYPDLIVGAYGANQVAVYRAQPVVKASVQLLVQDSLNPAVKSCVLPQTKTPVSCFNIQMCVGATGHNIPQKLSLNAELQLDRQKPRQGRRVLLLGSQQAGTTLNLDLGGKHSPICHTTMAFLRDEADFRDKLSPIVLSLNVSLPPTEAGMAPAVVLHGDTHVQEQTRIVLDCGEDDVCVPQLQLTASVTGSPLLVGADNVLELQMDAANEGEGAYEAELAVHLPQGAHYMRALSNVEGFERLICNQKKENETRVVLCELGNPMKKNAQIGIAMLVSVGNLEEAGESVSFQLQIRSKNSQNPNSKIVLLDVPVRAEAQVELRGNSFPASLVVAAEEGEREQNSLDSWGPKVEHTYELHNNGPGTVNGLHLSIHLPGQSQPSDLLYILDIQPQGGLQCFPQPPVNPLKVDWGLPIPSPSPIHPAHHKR
T1 sequence (P08514 891-1039 partner limits assumed): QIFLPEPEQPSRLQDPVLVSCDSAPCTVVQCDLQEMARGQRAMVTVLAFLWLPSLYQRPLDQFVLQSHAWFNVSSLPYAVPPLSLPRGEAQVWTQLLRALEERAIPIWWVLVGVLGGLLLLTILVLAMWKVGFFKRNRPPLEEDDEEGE
T1 sequence (P05106 27-788): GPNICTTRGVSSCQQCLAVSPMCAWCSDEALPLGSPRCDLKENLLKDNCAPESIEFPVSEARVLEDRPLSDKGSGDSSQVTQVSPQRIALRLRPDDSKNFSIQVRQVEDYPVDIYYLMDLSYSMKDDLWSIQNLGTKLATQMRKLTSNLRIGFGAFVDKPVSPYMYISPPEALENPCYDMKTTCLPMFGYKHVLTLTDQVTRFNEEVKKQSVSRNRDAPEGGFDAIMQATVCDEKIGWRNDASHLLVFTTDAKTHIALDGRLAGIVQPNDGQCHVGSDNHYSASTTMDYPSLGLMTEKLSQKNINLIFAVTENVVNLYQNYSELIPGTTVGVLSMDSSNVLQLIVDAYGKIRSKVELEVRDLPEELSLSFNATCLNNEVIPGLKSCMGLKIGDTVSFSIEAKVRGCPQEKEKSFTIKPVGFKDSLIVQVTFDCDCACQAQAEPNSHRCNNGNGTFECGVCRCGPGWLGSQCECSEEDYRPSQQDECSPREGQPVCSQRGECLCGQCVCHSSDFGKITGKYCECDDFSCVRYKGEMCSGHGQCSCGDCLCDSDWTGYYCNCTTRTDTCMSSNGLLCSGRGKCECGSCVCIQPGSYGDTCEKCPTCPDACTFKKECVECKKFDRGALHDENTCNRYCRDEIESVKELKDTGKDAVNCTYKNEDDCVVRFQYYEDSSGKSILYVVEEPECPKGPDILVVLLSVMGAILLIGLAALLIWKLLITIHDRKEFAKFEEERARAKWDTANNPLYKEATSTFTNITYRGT

Regarding `C#CCNC(=N)c1ccc(C(=O)Nc2ccc3c(c2)CC(CC(=O)O)CC3)cc1` (single isomer, unassigned; (-)) [Example 46, (-)-7-[[4-(N^2-propargylamidino)benzoyl]amino]-1,2,3,4-tetrahydronaphthalene-2-acetic acid hydrochloride], the IC50 in assay [1] is 0.11 nM; in assay [2], 29 nM; in assay [3], 150 nM.

On to `N=C(c1ccc(C(=O)Nc2ccc3c(c2)CC(CC(=O)O)CC3)cc1)N1CCOCC1` (single isomer, unassigned; (-)) [Example 48, (-)-7-[[4-(morpholinoiminomethyl)benzoyl]amino]-1,2,3,4-tetrahydronaphthalene-2-acetic acid hydrochloride], for which the IC50 in assay [1] was determined as 0.07 nM; in assay [2] it was 33 nM; in assay [3], 69 nM.

On to `C#CCNC(=N)c1ccc(C(=O)Nc2ccc3c(c2)CC(CC(=O)O)CO3)cc1` (single isomer, unassigned; (-)) [Example 50, (-)-6-[[4-(N^2-propargylamidino)benzoyl]amino]chroman-3-acetic acid hydrochloride], for which the IC50 in assay [1] turned out to be 0.22 nM; in assay [2], 44 nM; in assay [3], 200 nM.

Consider `N=C(c1ccc(C(=O)Nc2ccc3c(c2)CC(CC(=O)O)CO3)cc1)N1CCOCC1` (single isomer, unassigned; (-)) [Example 52, (-)-6-[[4-(morpholinoiminomethyl)benzoyl]amino]chroman-3-acetic acid hydrochloride], for which the results for the IC50 in assay [1], in assay [2] and in assay [3] were 0.13 nM, 35 nM and 110 nM, respectively.

Regarding `N=C(c1ccc(C(=O)Nc2ccc3c(c2)CC(CC(=O)O)CC3)cc1)N1CCOCC1` (centres unmarked) [Example 2, 7-[[4-(morpholinoiminomethyl)benzoyl]amino]-1,2,3,4-tetrahydronaphthalene-2-acetic acid hydrochloride], the IC50 in assay [1] stood at 0.13 nM; in assay [2] it was 68 nM; in assay [3] it was 140 nM.

Turning to `N=C(c1ccc(C(=O)Nc2ccc3c(c2)CC(CC(=O)O)CC3)cc1)N1CCSCC1` (centres unmarked) [Example 13, 7-[[4-(thiomorpholinoiminomethyl)benzoyl]amino]-1,2,3,4-tetrahydronaphthalene-2-acetic acid hydrochloride], the IC50 in assay [1] was 0.28 nM; in assay [2], 60 nM; in assay [3], 170 nM.

With `N=C(c1ccc(C(=O)Nc2ccc3c(c2)CC(CC(=O)O)CC3)cc1)N1CCCCC1` (centres unmarked) [Example 18, 7-[[4-(piperidinoiminomethyl)benzoyl]amino]-1,2,3,4-tetrahydronaphthalene-2-acetic acid hydrochloride], the IC50 amounted to 0.26 nM in assay [1] and 140 nM in assay [2].

Turning to `C#CCN=C(N)c1ccc(C(=O)Nc2ccc3c(c2)CC(CC(=O)O)CC3)cc1` (centres unmarked) [Example 25, 7-[[4-(N^2-propargylamidino)benzoyl]amino]-1,2,3,4-tetrahydronaphthalene-2-acetic acid hydrochloride], the IC50 in assay [1] is 0.18 nM; in assay [2], 100 nM; in assay [3] it was 280 nM.
